In US20240002388A1, “PYRIMIDINONE COMPOUNDS AND USES THEREOF” (HUTCHISON MEDIPHARMA LIMITED, priority 2020, published 2024) one finds IC50 data, which are given here for 22 molecules.

This assay has as its system IL-1β production in human whole blood. In words: TNF-α, Z-VAD-FMK and SM-164 induced IL-1β production in human whole blood. Format: cell-based. To be noted: Z-VAD-FMK and SM-164 stimulation, 6 hours, IL-1β ELISA. The source says:
• Human blood samples were collected by venipuncture from healthy volunteers, with signed consent from each volunteer before blood collection; • RPMI 1640 medium: L-Glutamine, 1.5 g/L NaHCO3, 2.383 g/L HEPES solution, 0.11 g/L sodium pyruvate and 4.5 g/L Glucose; Gibco, catalog: A10491-01; • Dimethyl sulfoxide (DMSO): Sigma, catalog: D2650; • Recombinant Human TNF-alpha Protein (hTNF-α): R&D system, catalog: 210-TA-100; • Pan-Caspase inhibitor (Z-VAD-FMK): Selleckchem, catalog: S7023; • Smac Mimetic-164 (SM-164): APEXBIO, catalog: A8815; • Human IL-1 beta/IL-1F2 Quantikine ELISA Kit: R&D systems, catalog: SLB50; • Envision Multimode Microplate Reader: PerkinElmer; • 96-well clear flat bottom TC-treated culture microplate: Falcon, catalog: 353072; • 96-well Microplate (U bottom): Corning, catalog: 3799. 2. Assay Protocol Human whole blood was anti-coagulated with heparin and used in human whole blood assay immediately. Fresh heparinized human whole blood was diluted with an equal volume of RPMI 1640 medium, aliquoted the diluted blood into 96-well plate, 90 μL each well.
Compound preparation: dilute the compound stock using DMSO and perform 3-fold serial dilution to 8-points. Then transfer the diluted compounds to RPMI 1640 medium and mix.
Compound treatment and stimulation: transfer 5 μL of the diluted compound to appropriate wells of the plate. The final concentration of the compound was 1.0, 0.333, 0.111, 0.037, 0.012, 0.004, 0.0014 and 0.0005 μM, and each well contained 0.3% DMSO. For positive and negative control wells, add 5 μL of RPMI 1640 medium with 3% DMSO. And incubate the plate at 5% CO2, 37° C. for 1 hour.
Then 5 μL of the mixture of stimuli (TNF-α, Z-VAD-FMK and SM-164) was added with the final concentration of […] except negative control wells. The negative control wells were added same volume of RPMI 1640 medium.
After incubation 6 hours in a 37° C./5% CO2 incubator, each well was added with 100 μL of PBS, and centrifuged at 4000 rmp for 10 minutes. The 110 μL of supernatant per well was collected, and stored at −80° C. for ELISA.
Prepared 100 μL of IL-1β standards (in duplicate) in designated wells. ELISA was operated according to manufacturer's instruction. In the end, measured the ELISA plate absorbance at 450 nm/570 nm using Envision.
Inhibition rates of compounds on TNF-α, Z-VAD-FMK and SM-164 induced IL-1β Production in human whole blood were calculated as follows: • IL-1β level was calculated with IL-1β standard curve (standard curve fitting equation is four parameters logistic model)
[formula] • IL-1β levelstimulated: the concentration of IL-1β in the positive control wells which added TNF-α, Z-VAD-FMK, SM-164 and no compound; • IL-1β levelnon-stimulated: the concentration of IL-1β in the negative control wells without the treatment of TNF-α, Z-VAD-FMK, SM-164 and compound; • IL-1β levelcompound: the concentration of IL-1β in the wells with the treatment of TNF-α, Z-VAD-FMK, SM-164 and compound. • The IC50 value of compound is determined with XLFit 5 software (ID Business Solutions Limited).
A general note: An ELISA detects its analyte on a solid surface through an enzyme-linked reagent.
Regarding `CC(C)n1cncc(-c2ccc(C3(NC(=O)c4ncc5cnn(C(C)C6CC6)c5n4)CC3)cc2)c1=O` (racemic) [Compound 59, 1-(1-cyclopropylethyl)-N-(1-(4-(1-i-propyl-6-oxo-1,6-dihydropyrimidin-5-yl)phenyl)cyclopropyl)-1H-pyrazolo[3,4-d]pyrimidine-6-carboxamide], the half-maximal inhibitory concentration (IC50) was 4 nM.

The molecule `CC(C)n1ncc2cnc(C(=O)NC3(c4ccc(-c5cncn([C@H](C)C(F)(F)F)c5=O)cc4F)CC3)nc21` (stereo in doubt) [Compound 46] registered an IC50 of 6 nM.

Turning to `CC(C)n1ncc2cnc(C(=O)NC3(c4ccc(-c5cncn([C@@H](C)C(F)(F)F)c5=O)cc4F)CC3)nc21` (stereo in doubt) [Compound 47], the midpoint of inhibition, the IC50, lay at 9 nM.

As for `CC(C)n1cncc(-c2ccc(C3(NC(=O)c4ncc5cnn(C(C)C)c5n4)CC3)cc2)c1=O` [Compound 29, 1-isopropyl-N-(1-(4-(1-isopropyl-6-oxo-1,6-dihydropyrimidin-5-yl)phenyl)cyclopropyl)-1H-pyrazolo[3,4-d]pyrimidine-6-carboxamide], the IC50 was 4 nM.

`CC(C)n1ncc2cnc(C(=O)NC3(c4ccc(-c5cncn(CC6CC6)c5=O)cc4)CC3)nc21` [Compound 36] had an IC50 of 4 nM.

As to `CC(C)n1ncc2cnc(C(=O)NC3(c4ccc(-c5cncn(C6COC6)c5=O)cc4)CC3)nc21` [Compound 41], the half-inhibitory concentration (IC50) came to 18 nM.

In turn, `CC(C)n1cncc(-c2ccc(C3(NC(=O)c4ncc5cnn(C6COC6)c5n4)CC3)cc2)c1=O` [Compound 60] yielded an IC50 of 10 nM.

`CC(C)n1cncc(-c2ccc(C3(NC(=O)c4ncc5cnn(CC6CC6)c5n4)CC3)cc2)c1=O` [Compound 61] had an IC50 of 11 nM.

For the molecule `O=C(NC1(c2ccc(-c3cncn(CC4CC4)c3=O)cc2)CC1)c1ncc2cnn(CC3CC3)c2n1` [Compound 64], 12 nM corresponded to half-maximal inhibition (IC50).

Molecule `C[C@H](n1cncc(-c2ccc(C3(NC(=O)c4ncc5cnn(CC6CC6)c5n4)CC3)cc2)c1=O)C(F)(F)F` [Compound 68] returned a concentration for half-maximal inhibition (IC50) of 43 nM. This IC50 lies about 3.6-fold higher than the previous one.

Turning to `C[C@@H](n1cncc(-c2ccc(C3(NC(=O)c4ncc5cnn(CC6CC6)c5n4)CC3)cc2)c1=O)C(F)(F)F` [Compound 70], the half-inhibitory concentration (IC50) was determined as 8 nM. Compared with the last molecule, the IC50 is about 5.4-fold lower.

For the molecule `C[C@H](n1cncc(-c2ccc(C3(NC(=O)c4ncc5cnn(CC6CC6)c5n4)CC3)c(F)c2)c1=O)C(F)(F)F` [Compound 71], the midpoint of inhibition, the IC50, lay at 38 nM.

Take `CC(C)n1cncc(-c2ccc(C3(NC(=O)c4ncc5cnn(CC6CC6)c5n4)CC3)c(F)c2)c1=O` [Compound 72]: the half-maximal inhibitory concentration (IC50) came to 39 nM.

As for `CC(C)n1cncc(-c2ccc(C3(NC(=O)c4ncc5cnn(CC6CC6)c5n4)CC3)cc2F)c1=O` [Compound 73], the IC50 came to 21 nM.

For the molecule `CC(C)n1ncc2cnc(C(=O)NC3(c4ccc(-c5cncn(CC6CC6)c5=O)cc4F)CC3)nc21` [Compound 74], the IC50 is 13 nM.

As for `CC(C)n1ncc2cnc(C(=O)NC3(c4ccc(-c5cncn(CC6CC6)c5=O)c(F)c4)CC3)nc21` [Compound 75], inhibition was half-maximal at 11 nM (IC50). This IC50 and that of the molecule before are within 1.5-fold of each other.

With `C[C@@H](n1cncc(-c2ccc(C3(NC(=O)c4ncc5cnn(CC6CC6)c5n4)CC3)c(F)c2)c1=O)C(F)(F)F` [Compound 76], 9 nM corresponded to half-maximal inhibition (IC50).

`CC(C)n1ncc2cnc(C(=O)NC3(c4ccc(-c5cncn([C@H](C)C6CC6)c5=O)cc4)CC3)nc21` [Compound 84, (R)—N-(1-(4-(1-(1-cyclopropylethyl)-6-oxo-1,6-dihydropyrimidin-5-yl)phenyl)cyclopropyl)-1-i-propyl-1H-pyrazolo[3,4-d]pyrimidine-6-carboxamide] yielded an IC50 of 5 nM.

`CC(C)n1ncc2cnc(C(=O)NC3(c4ccc(-c5cncn([C@@H](C)C6CC6)c5=O)cc4)CC3)nc21` [Compound 85, (S)—N-(1-(4-(1-(1-cyclopropylethyl)-6-oxo-1,6-dihydropyrimidin-5-yl)phenyl)cyclopropyl)-1-i-propyl-1H-pyrazolo[3,4-d]pyrimidine-6-carboxamide] had an IC50 of 5 nM.

For the molecule `CC(C)n1ncc2cnc(C(=O)NC3(c4ccc(-c5cncn(CC6(C)CC6)c5=O)cc4)CC3)nc21` [Compound 86], it took 13 nM to reach half-maximal inhibition (IC50).

`CC(C)n1cncc(-c2ccc(C3(NC(=O)c4ncc5cnn([C@H](C)C6CC6)c5n4)CC3)cc2)c1=O` [Compound 89, (R)-1-(1-cyclopropylethyl)-N-(1-(4-(1-i-propyl-6-oxo-1,6-dihydropyrimidin-5-yl)phenyl)cyclopropyl)-1H-pyrazolo[3,4-d]pyrimidine-6-carboxamide] returned an IC50 of 18 nM.

For `CC(C)n1cncc(-c2ccc(C3(NC(=O)c4ncc5cnn([C@@H](C)C6CC6)c5n4)CC3)cc2)c1=O` [Compound 90, (S)-1-(1-cyclopropylethyl)-N-(1-(4-(1-i-propyl-6-oxo-1,6-dihydropyrimidin-5-yl)phenyl)cyclopropyl)-1H-pyrazolo[3,4-d]pyrimidine-6-carboxamide], 7 nM corresponded to half-maximal inhibition (IC50). Against the preceding molecule, the IC50 is about 2.6-fold lower.

Usually IC50 stands for the midpoint of a concentration-inhibition curve.
